Test results reported in US20240150377A1, “MODULATORS OF CYSTIC FIBROSIS TRANSMEMBRANE CONDUCTANCE REGULATOR” (VERTEX PHARMACEUTICALS INCORPORATED, priority 2020, published 2024).
Read-outs that look alike come from different tables or passages of the source.

What was measured:
[1] = amide bond, 13-membered ring, DMF
CFTR [2] = target: CFTR (Homo sapiens, UniProt P13569); assay: Membrane potential dye, Enteroid Assay A; type: cell-based; conditions: for Ent. A Max Activity: chloride transport as % of triple combination control (Enteroid Assay A); for EC50: human enteroid cells, 18-24 hours, acute 10 μM forskolin and 300 nM ivacaftor, read-out: Ent. A EC50
Method in brief: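 % Activity: chloride transport relative to a 3 μM/3 μM corrector pair plus 300 nM acute potentiator control. Primary human enteroid cells, 18-24 h compound exposure at 37 °C; membrane potential dye (methyl oxonol) fluorescence over 15 min after forskolin (10 μM)/IBMX (100 μM)/Compound III (300 nM) stimulation in chloride-free buffer.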

CFTR [3] = target: T1, CFTR (Homo sapiens, UniProt P13569, DEL508-508); assay: HBE assay: Ussing chamber assay of CFTR-mediated short-circuit currents; type: cell-based
T1 construct: endogenous in cells; host or cells: primary human bronchial epithelial cells from CF subjects (F508del/MF-HBE), differentiated at air-liquid interface
Method in brief: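 CFTR-mediated Isc (μA/cm²) equals the peak response to apical 20 μM forskolin minus the residual after a 20 μM each BPO/GlyH-101/CFTR inhibitor 172 cocktail, recorded in Ussing chambers at Vhold 0 mV, 37 °C, pH 7.4, with 30 μM apical amiloride. Cells were F508del/MF HBE cultures preincubated 18-24 h with corrector (concentration range or 10 μM) plus 1 μM ivacaftor in 20% human serum.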

CFTR [4] = target: T1, CFTR; assay: HBE2 assay: Ussing chamber assay of CFTR-mediated short-circuit currents; type: cell-based; conditions: F508del/MF-HBE cells, with 44 nM potentiator, 18-24 hours, 20% human serum; for Emax: read-out: HBE2 Max activity (%)
Method in brief: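 Corrector activity read as CFTR-dependent ISC (μA/cm^2): peak forskolin current minus post-inhibitor steady state. Measured at 37 °C, voltage clamp at 0 mV, on F508del/MF-HBE epithelia grown >14 days air-liquid interface in Ussing chambers.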

[5] = HBE assay, 10 μM, read-out: HBE Activity at 10 μM (%)

T1 sequence (P13569 with tags, fused parts or gaps DEL508-508): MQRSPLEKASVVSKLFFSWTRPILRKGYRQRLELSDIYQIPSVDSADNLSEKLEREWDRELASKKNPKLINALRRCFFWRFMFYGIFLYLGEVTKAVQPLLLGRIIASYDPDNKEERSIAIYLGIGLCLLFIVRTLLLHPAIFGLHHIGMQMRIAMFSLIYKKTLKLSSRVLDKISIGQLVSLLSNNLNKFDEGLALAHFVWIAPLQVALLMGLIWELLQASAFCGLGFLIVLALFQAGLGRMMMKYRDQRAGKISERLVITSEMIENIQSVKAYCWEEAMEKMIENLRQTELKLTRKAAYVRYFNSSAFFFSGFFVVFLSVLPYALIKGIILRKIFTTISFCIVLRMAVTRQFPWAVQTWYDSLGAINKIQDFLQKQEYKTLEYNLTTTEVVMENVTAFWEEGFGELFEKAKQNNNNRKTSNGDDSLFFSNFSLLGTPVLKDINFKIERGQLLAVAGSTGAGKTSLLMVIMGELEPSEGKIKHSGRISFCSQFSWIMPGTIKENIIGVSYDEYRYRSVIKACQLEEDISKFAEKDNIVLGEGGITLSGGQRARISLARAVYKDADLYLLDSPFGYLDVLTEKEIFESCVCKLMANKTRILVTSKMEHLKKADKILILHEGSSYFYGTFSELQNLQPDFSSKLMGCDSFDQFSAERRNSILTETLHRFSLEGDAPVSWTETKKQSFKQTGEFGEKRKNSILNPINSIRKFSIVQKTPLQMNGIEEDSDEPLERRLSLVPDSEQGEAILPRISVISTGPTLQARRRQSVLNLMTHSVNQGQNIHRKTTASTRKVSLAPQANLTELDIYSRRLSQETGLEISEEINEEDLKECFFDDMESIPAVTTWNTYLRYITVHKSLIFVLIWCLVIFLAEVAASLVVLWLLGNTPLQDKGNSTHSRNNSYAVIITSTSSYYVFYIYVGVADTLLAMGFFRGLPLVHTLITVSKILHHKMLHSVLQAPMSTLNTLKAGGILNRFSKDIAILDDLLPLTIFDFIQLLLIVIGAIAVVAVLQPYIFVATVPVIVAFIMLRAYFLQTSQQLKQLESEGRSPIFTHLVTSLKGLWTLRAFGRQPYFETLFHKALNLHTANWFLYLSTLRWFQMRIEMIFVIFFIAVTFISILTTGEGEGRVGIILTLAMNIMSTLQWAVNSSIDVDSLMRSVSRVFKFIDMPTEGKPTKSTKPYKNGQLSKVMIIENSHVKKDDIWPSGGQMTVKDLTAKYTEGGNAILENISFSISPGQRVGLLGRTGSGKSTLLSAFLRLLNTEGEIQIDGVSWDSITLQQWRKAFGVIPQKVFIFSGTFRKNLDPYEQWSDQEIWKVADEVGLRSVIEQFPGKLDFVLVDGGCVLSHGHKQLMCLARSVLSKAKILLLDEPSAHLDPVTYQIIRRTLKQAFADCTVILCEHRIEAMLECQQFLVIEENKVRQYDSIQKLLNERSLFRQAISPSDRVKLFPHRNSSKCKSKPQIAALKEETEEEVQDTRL
Sequence of CFTR (Homo sapiens, UniProt P13569) (P13569 with tags, fused parts or gaps DEL508-508): as above

In the case of `Cc1cccc(C)c1-c1cc2nc(n1)NS(=O)(=O)c1cccc(c1)C(=O)N(C)CC(c1ccc(C(C)(C)C)cc1)O2` (racemic) [Compound 10, 10-(4-tert-butylphenyl)-6-(2,6-dimethylphenyl)-12-methyl-2,2-dioxo-9-oxa-2λ^6-thia-3,5,12,19-tetrazatricyclo[12.3.1.14,8]nonadeca-1(18),4(19),5,7,14,16-hexaen-13-one], the ring closure, yield after HPLC ([1]; from CNCC(Oc1cc(-c2c(C)cccc2C)nc(NS(=O)(=O)c2cccc(C(=O)O)c2)n1)c1ccc(C(C)(C)C)cc1, HATU/DIEA, 15.4 mM, 25.0 °C, 0.25 h, 2 steps) is reported as 19%, the “Ent. A Max Activity” value (CFTR [2]; Table 6) is reported as “+++ (+++ is >60%)” and the EC50 (CFTR [2]; Table 6) is reported as under 1000 nM.
In the case of `Cc1cccc(C)c1-c1cc2nc(n1)NS(=O)(=O)c1cccc(c1)C(=O)N(C)CC(c1cccc(C(C)(C)C)c1)O2` (racemic) [Compound 16, 10-(3-tert-butylphenyl)-6-(2,6-dimethylphenyl)-12-methyl-2,2-dioxo-9-oxa-2λ^6-thia-3,5,12,19-tetrazatricyclo[12.3.1.14,8]nonadeca-1(18),4(19),5,7,14,16-hexaen-13-one], the ring closure, yield after HPLC ([1]; from CNCC(Oc1cc(-c2c(C)cccc2C)nc(NS(=O)(=O)c2cccc(C(=O)O)c2)n1)c1cccc(C(C)(C)C)c1, HATU/DIEA, 32.6 mM, 25.0 °C, 1.0 h, 2 steps) is reported as 51%, the “Ent. A Max Activity” value (CFTR [2]; Table 7) is reported as “++ (++ is 30-60%)” and the EC50 (CFTR [2]; Table 7) is reported as under 1000 nM.
For `Cc1cccc(C)c1-c1cc2nc(n1)NS(=O)(=O)c1cccc(c1)C(=O)N(CCC(C)(C)C)CC(c1ccc(C(C)(C)C)cc1)O2` (stereo not drawn) [Compound 14, 10-(4-tert-butylphenyl)-12-(3,3-dimethylbutyl)-6-(2,6-dimethylphenyl)-2,2-dioxo-9-oxa-2λ^6-thia-3,5,12,19-tetrazatricyclo[12.3.1.14,8]nonadeca-1(18),4(19),5,7,14,16-hexaen-13-one], the ring closure, yield after HPLC ([1]; from Cc1cccc(C)c1-c1cc(OC(CNCCC(C)(C)C)c2ccc(C(C)(C)C)cc2)nc(NS(=O)(=O)c2cccc(C(=O)O)c2)n1, HATU/TEA, 0.42 h, 2 steps) was 6%, the “Ent. A Max Activity” value (CFTR [2]; Table 6) was “++ (++ is 30-60%)” and the EC50 (CFTR [2]; Table 6) was under 1000 nM.
With `Cc1cccc(C)c1-c1cc2nc(n1)NS(=O)(=O)c1cccc(c1)C(=O)N(CCC1CCOCC1)C(CCC1(C(F)(F)F)CC1)CO2` (stereo not drawn) [Compound 74, 6-(2,6-dimethylphenyl)-2,2-dioxo-12-(2-tetrahydropyran-4-ylethyl)-11-[2-[1-(trifluoromethyl)cyclopropyl]ethyl]-9-oxa-2λ^6-thia-3,5,12,19-tetrazatricyclo[12.3.1.14,8]nonadeca-1(18),4(19),5,7,14,16-hexaen-13-one] the ring closure, yield after HPLC ([1]; from Cc1cccc(C)c1-c1cc(OCC(CCC2(C(F)(F)F)CC2)NCCC2CCOCC2)nc(NS(=O)(=O)c2cccc(C(=O)O)c2)n1, HATU/DIEA, 24.1 mM, 16.0 h) was 23%, the “Ent. A Max Activity” value (CFTR [2]; Table 6) was “+++ (+++ is >60%)” and the EC50 (CFTR [2]; Table 6) was under 1000 nM.
With `Cc1cccc(C)c1-c1cc2nc(n1)NS(=O)(=O)c1cccc(c1)C(=O)N(Cc1cnn3ccccc13)[C@H](CC(C)(C)C)CO2` [Compound 139, (11R)-6-(2,6-Dimethylphenyl)-11-(2,2-dimethylpropyl)-12-({pyrazolo[1,5-a]pyridin-3-yl}methyl)-9-oxa-2λ^6-thia-3,5,12,19-tetraazatricyclo[12.3.1.14,8]nonadeca-1(17),4,6,8(19),14(18),15-hexaene-2,2,13-trione] the ring closure, yield after HPLC ([1]; from Cc1cccc(C)c1-c1cc(OC[C@@H](CC(C)(C)C)NCc2cnn3ccccc23)nc(NS(=O)(=O)c2cccc(C(=O)O)c2)n1, HATU/DIEA, 29.4 mM, 4.0 h) was 57% and the activation at 10 µM (CFTR [3]; Table 10, at 10 μM, read-out: HBE activity at 10 (μM) (%)) was over 60%.
Work on `Cc1cccc(C)c1-c1cc2nc(n1)NS(=O)(=O)c1cccc(c1)C(=O)N(Cc1cn(C)nn1)[C@H](CC(C)(C)C)CO2` [Compound 140, (11R)-6-(2,6-Dimethylphenyl)-11-(2,2-dimethylpropyl)-12-[(1-methyltriazol-4-yl)methyl]-2,2-dioxo-9-oxa-2λ^6-thia-3,5,12,19-tetrazatricyclo[12.3.1.14,8]nonadeca-1(18),4(19),5,7,14,16-hexaen-13-one] yielded a ring closure, yield after HPLC ([1]; from Cc1cccc(C)c1-c1cc(OC[C@@H](CC(C)(C)C)NCc2cn(C)nn2)nc(NS(=O)(=O)c2cccc(C(=O)O)c2)n1, HATU/DIEA, 29.1 mM, 15.0 h) of 25% and an activation at 10 µM (CFTR [3]; Table 11, at 10 μM, read-out: HBE Activity at 10 μM (%)) of over 60%.
In the case of `Cc1cccc(C)c1-c1cc2nc(n1)NS(=O)(=O)c1cccc(c1)C(=O)N(C[C@@H]1CN(C(=O)OC(C)(C)C)CCO1)[C@H](CC(C)(C)C)CO2` [Compound 141, tert-Butyl (2R)-2-[[(11R)-6-(2,6-dimethylphenyl)-11-(2,2-dimethylpropyl)-2,2,13-trioxo-9-oxa-2λ^6-thia-3,5,12,19-tetrazatricyclo[12.3.1.14,8]nonadeca-1(18),4(19),5,7,14,16-hexaen-12-yl]methyl]morpholine-4-carboxylate], the ring closure, yield after HPLC ([1]; from Cc1cccc(C)c1-c1cc(OC[C@@H](CC(C)(C)C)NC[C@@H]2CN(C(=O)OC(C)(C)C)CCO2)nc(NS(=O)(=O)c2cccc(C(=O)O)c2)n1, CDMT/NMM, 26.4 mM) is reported as 69%, the EC50 (CFTR [3]; Table 11, read-out: HBE EC50) is reported as under 1000 nM and the Emax (CFTR [3]; Table 11, read-out: HBE Max Activity (%)) is reported as over 60%.
In the case of `Cc1cccc(C)c1-c1cc2nc(n1)NS(=O)(=O)c1cccc(c1)C(=O)N(Cc1ncc(OC(C)C)cn1)[C@H](CC1(C)CC1)CO2` [Compound 1306, (11R)-6-(2,6-Dimethylphenyl)-12-[(5-isopropoxypyrimidin-2-yl)methyl]-11-[(1-methylcyclopropyl)methyl]-2,2-dioxo-9-oxa-2λ^6-thia-3,5,12,19-tetrazatricyclo[12.3.1.14,8]nonadeca-1(18),4(19),5,7,14,16-hexaen-13-one], the ring closure, yield after HPLC ([1]; from Cc1cccc(C)c1-c1cc(OC[C@@H](CC2(C)CC2)NCc2ncc(OC(C)C)cn2)nc(NS(=O)(=O)c2cccc(C(=O)O)c2)n1, CDMT/NMM, 33.8 mM, 4.0 h) is reported as 53%, the activation at 10 µM (CFTR [3]; [5]) is reported as over 60% and the “HBE2 Activity at 3 μM (%)” value (CFTR [4]) is reported as “+++ (+++ is >60+)”. It also gave an EC50 (CFTR [4]) of under 1000 nM and an Emax (CFTR [4]) of over 60%.
For `Cc1cccc(C)c1-c1cc2nc(n1)NS(=O)(=O)c1cccc(c1)C(=O)N(Cc1ncc(N3CC(C)(C)C3)cn1)[C@H](CC1(C)CC1)CO2` [Compound 1307, (11R)-12-[[5-(3,3-Dimethylazetidin-1-yl)pyrimidin-2-yl]methyl]-6-(2,6-dimethylphenyl)-11-[(1-methylcyclopropyl)methyl]-2,2-dioxo-9-oxa-2λ^6-thia-3,5,12,19-tetrazatricyclo[12.3.1.14,8]nonadeca-1(18),4(19),5,7,14,16-hexaen-13-one], the ring closure, yield after HPLC ([1]; from Cc1cccc(C)c1-c1cc(OC[C@@H](CC2(C)CC2)NCc2ncc(N3CC(C)(C)C3)cn2)nc(NS(=O)(=O)c2cccc(C(=O)O)c2)n1, CDMT/NMM, 24.2 mM, 3.0 h) was 65%, the activation at 10 µM (CFTR [3]; [5]) was over 60% and the “HBE2 Activity at 3 μM (%)” value (CFTR [4]) was “+++ (+++ is >60+)”.
For `Cc1cccc(C)c1-c1cc2nc(n1)NS(=O)(=O)c1cccc(c1)C(=O)N(Cc1ncc(OC(C)C)cn1)[C@H](CC1(C)CCC1)CO2` [Compound 1317, (11R)-6-(2,6-Dimethylphenyl)-12-[(5-isopropoxypyrimidin-2-yl)methyl]-11-[(1-methylcyclobutyl)methyl]-2,2-dioxo-9-oxa-2λ6-thia-3,5,12,19-tetrazatricyclo[12.3.1.14,8]nonadeca-1(18),4(19),5,7,14,16-hexaen-13-one], the ring closure, yield after HPLC ([1]; from Cc1cccc(C)c1-c1cc(OC[C@@H](CC2(C)CCC2)NCc2ncc(OC(C)C)cn2)nc(NS(=O)(=O)c2cccc(C(=O)O)c2)n1, CDMT/NMM, 12.9 mM, 22.0 h) was 64% and the “HBE2 Activity at 3 μM (%)” value (CFTR [4]) was “+++ (+++ is >60+)”.
With `Cc1cccc(C)c1-c1cc2nc(n1)NS(=O)(=O)c1cccc(c1)C(=O)N(Cc1cncc(N(C)C3CCC3)n1)[C@H](CCC(C)(C)C)CO2` [Compound 1319, (11R)-12-[[6-[Cyclobutyl(methyl)amino]pyrazin-2-yl]methyl]-11-(3,3-dimethylbutyl)-6-(2,6-dimethylphenyl)-2,2-dioxo-9-oxa-2λ^6-thia-3,5,12,19-tetrazatricyclo[12.3.1.14,8]nonadeca-1(18),4(19),5,7,14,16-hexaen-13-one] the ring closure, yield after HPLC ([1]; from Cc1cccc(C)c1-c1cc(OC[C@@H](CCC(C)(C)C)NCc2cncc(N(C)C3CCC3)n2)nc(NS(=O)(=O)c2cccc(C(=O)O)c2)n1, CDMT/NMM, 26.4 mM, 13.1 h) was 44%, the “HBE2 Activity at 3 μM (%)” value (CFTR [4]) was “+++ (+++ is >60+)” and the EC50 (CFTR [4]) was under 1000 nM. For the same molecule, the Emax (CFTR [4]) was over 60%.
